These results are taken from patent publication US20080318781A1, “Method of Controlling Weeds” (priority 2005, published 2008).

Type in all cases: in vivo
Series [1] relates to glyphosate resistant soybeans. Description: Example 1 field test, pre-plant treatment: phytotoxicity in crop. The conditions noted are these: 44 days after treatment, crop planted at 15 DAT, use rate g/ha: glyphosate 870, I.7 25, I.7 + glyphosate 25 + 870, I.7 + imazethapyr 25 + 70, 0 = no damage, 100 = complete destruction. The text has this: (§1) The phenyluracils I and/or the other active ingredients according to the present invention were formulated in a suitable way, either separately or in mixture, e.g. as emulsifiable concentrates (EC), soluble concentrates (SL), suspo-emulsions (SE), suspension concentrates (SC) or water-dispersible granules (WG). The formulation(s) were suspended or emulsified in water as a distribution medium immediately prior to spraying. Afterwards, the aqueous mixture was evenly sprayed on the test plots by means of finely distributing nozzles.
(§2) The test plots were of uniform size (typically between 14 and 37 square meters, each) and the distribution of treated and untreated plots was organized according to a randomised bloc design. Crops were sown in rows at a season which was typical for the region and the crop according to usual farm practice. Weeds were not sown but germinated according to the natural infestation.
(§3) For pre-plant and pre-plant burn-down treatments, the plots were treated before the crop was planted, typically 7 to 28 days prior to planting. For pre-emergence treatments, the plots were treated at planting (plus or minus two days) but before emergence. For post-emergence or in-crop treatments, the plots were treated after the emergence of the weed or crop, typically 20 to 50 days after planting. […]

Series [2] deals with glyphosate resistant soybeans. The series is described as follows: Example 3 field test, pre-plant treatment followed by in-crop glyphosate: phytotoxicity in crop. The conditions noted are these: 57 days after first treatment; pre-plant (glyphosate 870; I.7 25; I.7 + glyphosate 25 + 870; I.7 + imazethapyr 25 + 70 g/ha), followed by glyphosate 870 g/ha at 42 DAT; crop planted at 12 DAT.
Excerpt: as §1, §2, §3

The subject of series [3] is glyphosate resistant soybeans. Description: Example 2 field test, pre-plant burn-down treatment followed by in-crop glyphosate: phytotoxicity in crop. Particulars: 86 days after first treatment; pre-plant burn-down (glyphosate 870 g/ha or I.7 50 g/ha), followed by glyphosate 870 g/ha at 53 DAT; crop planted at 8 DAT.
Excerpt: as §1, §2, §3

For series [4], the system named is Common lambsquarters (CHEAL). Description: Example 3 field test, pre-plant treatment followed by in-crop glyphosate: weed control. The conditions noted are these: 57 days after first treatment; pre-plant (glyphosate 870; I.7 25; I.7 + glyphosate 25 + 870; I.7 + imazethapyr 25 + 70 g/ha), followed by glyphosate 870 g/ha at 42 DAT.
Excerpt: as §1, §2, §3

Series [5] has as its system Giant ragweed (AMBTR). The series is described as above. The conditions noted are these: 57 days after first treatment; pre-plant (glyphosate 870; I.7 25; I.7 + glyphosate 25 + 870; I.7 + imazethapyr 25 + 70 g/ha), followed by glyphosate 870 g/ha at 42 DAT.
Excerpt: as §1, §2, §3

Series [6] has as its system Giant ragweed (AMBTR). Description: Example 1 field test, pre-plant treatment: weed control. Particulars: 44 days after treatment, use rate g/ha: glyphosate 870, I.7 25, I.7 + glyphosate 25 + 870, I.7 + imazethapyr 25 + 70.
Excerpt: as §1, §2, §3

For series [7], the system named is Velvetleaf (ABUTH). The description is as above. The conditions noted are these: 44 days after treatment, use rate g/ha: glyphosate 870, I.7 25, I.7 + glyphosate 25 + 870, I.7 + imazethapyr 25 + 70.
Excerpt: as §1, §2, §3

Series [8] deals with Common lambsquarters (CHEAL). The series is described as follows: Example 2 field test, pre-plant burn-down treatment followed by in-crop glyphosate: weed control. The conditions noted are these: 86 days after first treatment; pre-plant burn-down (glyphosate 870 g/ha or I.7 50 g/ha), followed by glyphosate 870 g/ha at 53 DAT.
Excerpt: as §1, §2
(§4) For pre-plant and pre-plant burn-down treatments, the plots were treated before the crop was planted, typically 7 to 28 days prior to planting. For pre-emergence treatments, the plots were treated at planting (plus or minus two days) but before emergence. For post-emergence or in-crop treatments, the plots were treated after the emergence of the weed or crop, typically 20 to 50 days after planting.
(§5) The evaluation of the damage caused by the phenyluracils I and/or the other active ingredients according to the present invention was carried out using a scale from 0 to 100%, compared to the untreated control plots. Here, 0 means no damage and 100 means complete destruction of the plants of a respective weed or crop species.
(§6) Weed control in glyphosate resistant soybeans 86 days after the first treatment; pre-plant burn-down treatment followed by an in-crop glyphosate treatment at 53 DAT; field test.
(§7) In this example, glyphosate (potassium salt) was formulated as a 540 g/l SL and phenyluracil I.7 as a 120 g/l EC. […]

In series [9] the test system is Giant ragweed (AMBTR). Described as above. The conditions noted are these: 86 days after first treatment; pre-plant burn-down (glyphosate 870 g/ha or I.7 50 g/ha), followed by glyphosate 870 g/ha at 53 DAT.
Excerpt: as §1, §2, §4, §5, §6, §7

Series [10] relates to Velvetleaf (ABUTH). Described as above. Particulars: 86 days after first treatment; pre-plant burn-down (glyphosate 870 g/ha or I.7 50 g/ha), followed by glyphosate 870 g/ha at 53 DAT.
Excerpt: as §1, §2, §4, §5, §6, §7

For the compound `O=C(O)CNCP(=O)(O)O` [Glyphosate, glyphosate], the “Phytotoxicity in glyphosate resistant soybeans (% damage)” value in series [1], in series [2] and in series [3] was 0% throughout. Also, the “Weed control (% control) Common lambsquarters (CHEAL)” value in series [4] was 83%; in series [8], 89%. Also, the “Weed control (% control) Giant ragweed (AMBTR)” value in the series on Giant ragweed (AMBTR) [5] was found to be 72%; in the series with Giant ragweed (AMBTR) [6] it was 86%; in the series with Giant ragweed (AMBTR) [9], 86%. In addition, the “Weed control (% control) Velvetleaf (ABUTH)” value was found to be 17% with Velvetleaf (ABUTH) [7] and 91% in the series on Velvetleaf (ABUTH) [10].
